Experimental data taken from PMC6743424, “Phenolic acid phenethylesters and their corresponding ketones: Inhibition of 5‐lipoxygenase and stability in human blood and HepaRG cells” (Pharmacology Research & Perspectives, 2019).
Where two headings read alike, the source gives them in different places.

Columns and labels:
[1] = design: method as in PMID 17394337, PMID 15358316, PMID 19544289; conditions: carboxylesterase; cited from earlier work
[2] = design: method as in PMID 17394337, PMID 15358316, PMID 19544289; conditions: oral administration to rats; cited from earlier work
[3] = biological target: T1, 5‐LO (Homo sapiens, UniProt P09917); assay: Ex vivo whole blood stimulation with opsonized zymosan, 5‐LO products; assay type: cell-based; design: endogenous in cells; host or cells: human polymorphonuclear leukocytes isolated from heparinized blood; conditions: 5‐LO product biosynthesis in whole blood, mean (95% confidence interval)
T1 sequence (P09917 1-674): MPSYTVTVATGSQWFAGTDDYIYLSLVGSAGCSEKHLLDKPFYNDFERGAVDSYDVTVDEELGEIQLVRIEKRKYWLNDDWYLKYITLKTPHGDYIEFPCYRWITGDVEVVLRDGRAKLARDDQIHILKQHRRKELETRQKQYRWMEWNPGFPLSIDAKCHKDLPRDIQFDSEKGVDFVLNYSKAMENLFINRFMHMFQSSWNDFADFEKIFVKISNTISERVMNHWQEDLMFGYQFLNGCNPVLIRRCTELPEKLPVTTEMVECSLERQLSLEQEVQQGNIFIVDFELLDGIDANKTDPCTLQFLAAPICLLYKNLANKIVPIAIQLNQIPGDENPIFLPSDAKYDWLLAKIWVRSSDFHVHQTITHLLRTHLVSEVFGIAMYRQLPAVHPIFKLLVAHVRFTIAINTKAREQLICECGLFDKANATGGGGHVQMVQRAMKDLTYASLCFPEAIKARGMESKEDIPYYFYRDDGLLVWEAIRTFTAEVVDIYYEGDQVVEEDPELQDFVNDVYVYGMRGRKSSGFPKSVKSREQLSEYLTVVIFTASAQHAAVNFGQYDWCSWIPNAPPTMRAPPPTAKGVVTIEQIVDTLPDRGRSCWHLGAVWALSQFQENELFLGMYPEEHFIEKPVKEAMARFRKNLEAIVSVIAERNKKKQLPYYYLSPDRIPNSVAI
Procedure: Blood was collected in tubes containing heparin as anticoagulant. Test compounds or their diluent control (DMSO, 0.1%) were added to 1 mL of heparinized blood at the indicated concentrations and incubated for 5 minutes in a water bath at 37°C. Stimulation was initiated with the addition of 125 μL of 40 mg/mL of opsonized zymosan, samples were then gently vortexed and incubated at 37°C for 30 minutes.34 Samples were then centrifuged at 960g for 10 minutes at 4°C, plasma was removed and added to tubes containing 4 volumes of CH3OH:CH3CN (1:1) containing 100 ng/mL of PGB2 as internal standard. Samples were stored overnight at −20°C, and then centrifuged at 3300g for 10 minutes. Samples were then purified on C18 cartridges, were eluted with CH3OH, dried under nitrogen, resuspended in 46% of CH3OH:CH3CN (1:1), and analyzed using RP‐HPLC as described above.

[4] = biological target: T1, 5‐LO; design: endogenous in cells; host or cells: human polymorphonuclear leukocytes isolated from heparinized blood; method as in PMID 22347509, PMID 28680195; conditions: read-out: IC50 of LT biosynthesis in isolated human neutrophils; cited from earlier work
[5] = biological target: T1, 5‐LO; design: endogenous in cells; host or cells: human polymorphonuclear leukocytes isolated from heparinized blood; method as in PMID 22347509, PMID 28680195; conditions: read-out: IC50 of LT biosynthesis in whole blood; cited from earlier work
[6] = biological target: T1, 5‐LO; assay: Biosynthesis of 5‐LO products in stimulated HEK293 cells expressing 5‐LO and FLAP; assay type: cell-based; design: expressed in transfected cells; host or cells: HEK293 cells (ATCC), stably transfected; conditions: 1 μmol/L, 5 min preincubation; 10 μmol/L A23187 + 10 μmol/L arachidonic acid 15 min
Procedure: HEK293 cells were obtained from ATCC (Manassas) and were cultured in Dulbecco’s Modified Eagle Medium (DMEM) supplemented with 10% fetal bovine serum. Cells were stably transfected with 5‐lipoxygenase and 5‐lipoxygenase activating protein (FLAP) as previously described.31
Transfected HEK293 cells were collected and resuspended in Hank's balanced salt solution (HBSS, Lonza) containing 1.6 mmol/L CaCl2 at a concentration of 5 × 10^5 cells/mL, and were preincubated with each compound at concentration of 1 µmol/L for 5 minutes at 37°C. Cells were then stimulated for 15 minutes at 37°C with the addition of 10 µmol/L calcium ionophore A23187 (Sigma‐Aldrich) and 10 µmol/L arachidonic acid (Cayman Chemical).28 Stimulations were stopped by adding 0.5 volume of cold CH3OH:CH3CN (1:1) containing 100 ng/mL of prostaglandin B2 (PGB2) as internal standard. Samples were stored at −20°C and analyzed for 5‐LO products using reversed‐phase high‐performance liquid chromatography (RP‐HPLC) as described previously.32
Figure 2 The structures of the tested compounds (A) and their effects on the biosynthesis of 5‐LO products in transfected HEK293 cells (B). HEK293 cells expressing 5‐LO and FLAP were incubated in presence of the indicated compounds (1 μmol/L) or their diluent (Control, 0.1% DMSO) for 5 minutes, followed by the addition of 10 μmol/L calcium ionophore A23187 and 10 μmol/L arachidonic acid for 15 minutes. Reactions were then stopped, and samples were processed for analysis of 5‐LO products using RP‐HPLC. Total 5‐LO products measured represent the sum of LTB4, its trans isomers and 5‐hydroxyeicosatetraenoic acid. Data are expressed as means ± SEM of at least three independent experiments. *Difference from control as determined using one‐way ANOVA with Dunnett's multiple comparison test (P < .05)

Question: Which “Stability in rat plasma” value [1] does the source give for `O=C(/C=C/c1ccc(O)c(O)c1)OCCc1ccccc1` [CAPE (2), caffeic acid phenethyl ester, reference compound] here?
Answer: The value was “rapidly hydrolyzed to caffeic acid”.

Question: What about the “Major metabolite in urine” value [2] of the same compound?
Answer: Its value is “caffeic acid”.

Question: And the IC50 [3]?
Answer: Its IC50 is 3.58 µM.

Question: What about the IC50 [4] of the same compound?
Answer: The IC50 was 0.5 µM.

Question: And the IC50 [5]?
Answer: Its IC50 is 1.8 µM.

Question: For `O=C(/C=C/c1cc(O)ccc1O)OCCc1ccccc1` [compound 5], which “Inhibition of biosynthesis of 5‐LO products in transfected HEK293 cells” value [6] is on record?
Answer: Its value is “very good inhibitory activity”.

Question: What about the IC50 [3] of the same compound?
Answer: Its IC50 is 1 µM.

Question: For `O=C(/C=C/c1ccc(O)c(O)c1)CCCc1ccccc1` [compound 7], which IC50 [3] is on record?
Answer: The IC50 was 2.3 µM.

Question: With `O=C(/C=C/c1cc(O)ccc1O)CCc1ccccc1` [compound 8] as the compound, how does the IC50 [3] read?
Answer: The IC50 was 1.15 µM.

Question: With `COc1cc(/C=C/C(=O)CCc2ccccc2)cc(OC)c1O` [compound 10, sinapic acid phenethyl ketone] as the compound, how does the IC50 [3] read?
Answer: Its IC50 is 1.2 µM.
